Results on 1 compound are retold here after PMC11809180, “RA-PR058, a novel ramalin derivative, reduces BACE1 expression and phosphorylation of tau in Alzheimer’s disease mouse models” (Animal Cells and Systems, 2025).

The nature of one series: Microsomal stability. It is filed as in vitro ADME. The note with it: human, mouse, rat, dog, monkey, liver microsomes, 30 minutes 37 ℃, with and without NADPH, across all microsomes tested. The procedure:
The metabolic stability of RA-PR058 was evaluated using liver microsomes from humans and various animal species at 37 ℃. This assay was carried out by SPMED Co., Ltd (Republic of Korea). The test was initiated by adding the 1 μM of RA-PR058 to liver microsomes in the presence or absence of an NADPH regenerating system. After incubation at 37 ℃ for 30 minutes, acetonitrile containing an internal standard was added to each sample to terminate the reaction. Samples were then centrifuged, and the supernatant was analyzed by LC-MS.

In the next series the test system is BACE1. Kind of series: BACE1 expression in SH-SY5Y cells under H2O2 oxidative stress (western blot). It is filed as cell-based, human. The following applies: 10 μM RA-PR058 24 hours, then 200 μM H2O2 4 hours, normalized with β-Actin, n = 4. The procedure: Human neuroblastoma cell line, SH-SY5Y were maintained in DMEM (Welgene) supplemented with 10% fetal bovine serum (FBS, Gibco) and 1% penicillin/streptomycin (Capricorn) at 37 °C in a humidified atmosphere containing 5% CO2. […] [2024]). Samples for western blot analysis were prepared as previously described (Gwon et al. [2012]). Cells were lysed with T-PER^TM Tissue Protein Extraction Reagent (Thermo Fisher Scientific) supplemented with protease/phosphatase inhibitor cocktail (Thermo Fisher Scientific) and incubated at 4 °C for 10 minutes. After incubation, lysed samples were centrifuged at 13,000 x rpm for 10 minutes at 4 °C and the supernatant were used for western blot analysis. The cortices and hippocampi tissues were homogenized using RIPA lysis buffer (Millipore) supplemented with protease/phosphatase inhibitor cocktail and incubated at 4 °C for 30 minutes. Following incubation, lysed tissues were centrifuged at 13,000 x rpm for 30 minutes at 4 °C and the supernatant were used for western blot analysis. Protein concentrations were measured using Pierce^TM BCA Protein Assay Kits (Thermo Fisher Scientific). Equal amounts of proteins were mixed with NuPAGE^TM LDS Sample Buffer (Invitrogen) and 5% 2-mercaptoethanol (Sigma) and then boiled at 95 °C for 5 minutes. […] Protein bands were quantified using ImageJ (NIH).
For orientation: In western blotting, separated proteins are transferred to a membrane and probed.

Series [1] in a line: Plasma and brain pharmacokinetics after oral administration. It is filed as in vivo. The following applies: Sprague-Dawley, rat, 10 mg/kg oral, S.D. rats; for AUC(0-t): read-out: AUC0-7h. The procedure: (§1) Pharmacokinetic assays were conducted by NeuroVis (Republic of Korea). 10 mg/kg of RA-PR058 was administered to Sprague–Dawley rats by either oral administration route or intravenous injection route. Blood sampling was conducted using the BASi Culex ABS system. After cannulation, catheters were inserted into the jugular vein and the carotid artery of the rats, with the system programmed to collect 200 μL samples. Collected blood samples were centrifuged at 12,000 x rpm for 10 minutes to separate plasma, which was then immediately stored at −80 ℃. For brain pharmacokinetics, 10 mg/kg of RA-PR058 was administered orally to Sprague–Dawley rats, followed by collection of both blood and brain tissue. After collection, samples were mixed with the internal standard, ofloxacin, and centrifuged at 13,000 x rpm for 5 minutes at 4 ℃. The resulting supernatants were then combined with 50% methanol and analyzed by LC-MS/MS.

Series [2] can be described thus: Plasma pharmacokinetics after IV and PO administration. It is filed as in vivo. The note with it: Sprague-Dawley, rat, 10 mg/kg, S.D. rats; for Cmax / half-life / AUC(0-t): in vivo; for AUC(0-t): read-out: AUC0-7h; for Tmax: plasma. The method, then:
as §1

For series [3], the system named is cytochrome P450 (CYP) isoforms (CYP1A2, CYP2C9, CYP2C19, CYP2D6, and CYP3A). Kind of series: Cytochrome P450 inhibition assay in human liver microsomes. It is filed as in vitro ADME. The note with it: 10 μM RA-PR058, 20 minutes 37 ℃, with NADPH regenerating system. The method, then:
Inhibitory potentials of RA-PR058 on cytochrome P450 (CYP) isoforms (CYP1A2, CYP2C9, CYP2C19, CYP2D6, and CYP3A) were evaluated. This assay was conducted by SPMED Co., Ltd (Republic of Korea). Human liver microsomes were incubated at 37 ℃ for 20 minutes with phosphate buffer (pH 7.4), each CYP substrate (for CYP1A2: phenacetin, CYP2C9: diclofenac, CYP2C19: S-mephenytoin, CYP2D6: dextromethorphan, CYP3A: midazolam), and 10 μM of RA-PR058 in the presence of an NADPH regenerating system. The reaction was terminated by adding an acetonitrile solution containing an internal standard. Following reaction termination, samples were centrifuged, and the supernatant was injected into an LC-MS/MS system to analyze the metabolites of each substrate drug.
For orientation: Microsomes from liver hold many membrane-bound enzymes, among them those of drug oxidation.

Some results are limits rather than exact numbers.

The term fraction remaining denotes what is left of the initial amount, in per cent. A higher fraction remaining goes with greater stability. As usually defined, the Cmax is the highest concentration seen after dosing. The half-life is the time needed for the level to fall by half in the phase considered. The Tmax is the time at which the peak concentration occurs. Compound `Cl.N[C@@H](CCC(=O)NNc1ccccc1F)C(F)F` [RA-PR058, (S)-4-amino-5,5-difluoro-N'-(2-fluorophenyl)pentanehydrazide hydrochloride] showed a share remaining at 0.5 h, 1 μM in the series “Microsomal stability” above 90%. The “H2O2-induced increase in BACE1 expression” value in the series with BACE1 is recorded as “markedly attenuated”. Moreover, the Kp in series [1] (brain and plasma, read-out: Brain-to-plasma AUC ratio (AUC0–7h)) stood at 0.916. Further, the Cmax was 3190 ng/mL in series [1] (Brain), 3900 ng/mL in series [1] (Plasma), 4260 ng/mL in series [2] (IV) and 3480 ng/mL in series [2] (PO). The half-life in series [1] (Brain) is 1.57 h; in series [1] (Plasma) it was 1.06 h; in series [2] (IV), 1.06 h; in series [2] (PO), 1.57 h. Besides, the AUC(0-t) is 6090 ng·h/mL in series [1] (Brain), 5700 ng·h/mL in series [1] (Plasma), 5700 ng·h/mL in series [2] (IV) and 6090 ng·h/mL in series [2] (PO). Further, the Tmax in series [2] (IV) came to 0.292 h; in series [2] (PO) it was 0.458 h. Also, the “Decrease in mean control activity of CYP isoforms” value in series [3] is 12%.
